Laboratory results published in patent US10004786B2 (Zealand Pharma A/S, priority 2009, dated 2018).
Numbered stars: 1 amine (or outer) side, 2 acyl side, 3 side chain; on linkers, the order of the positions; unused ones are H or OH. Bridge positions count the residues as written; N and C are the ends. Square brackets hold non-standard residues; d marks the D form. Side chains are listed from the residue outwards. Peptide text beside a SMILES is read from it. * marks the point of attachment. γGlu = O=C(O)[C@H](CCC(=O)[*:2])N[*:1]; Palmitoyl = CCCCCCCCCCCCCCCC(=O)*; Aib = CC(C)(N)C(=O)O

Columns and labels:
[1] = Pharmacokinetic screening in mouse plasma after subcutaneous administration; type: in vivo; settings: sc, mice, 100 nmol/kg s.c., * = only two time points used for calculation
Procedure: Mice were dosed 100 nmol/kg subcutaneously (s.c.). The mice were sacrificed and the blood collected at the following time points; 0.5, 2, 4, 6, 16 and 24 h. Plasma samples were analyzed using protein precipitation, followed by solid phase extraction (SPE) and liquid chromatography mass spectrometry (LC-MS).
Pharmacokinetic profiles were determined for various acylated compounds.

[2] = Body weight gain in high fat fed C57BL/6J mice (10 days); type: in vivo; settings: short term high fat-fed C57BL/6J mice; for body weight gain, high dose: 5 nmol/kg b.i.d. s.c.
Procedure: C57Bl/6J male mice, 6 weeks old, were acclimatized in their new environment for 4 weeks with free access to high fat diet (HFD) (D12492, Research Diet Inc., New Brunswick, USA) and water. The animals were injected s.c. with 100 μl vehicle for a period of three days to acclimatize the animals to handling and injections, prior to initiation of peptide treatment. […] Throughout the study, body weights were recorded daily and used to administer the body weight-corrected doses of peptide. All animals were sacrificed on the same day by cervical dislocation.
C57Bl/6J male mice on high fat diet (HFD) were treated (b.i.d.; s.c.) (0.5 and 5 nmol/kg) or vehicle. Body weights were recorded daily and used to administer the body weight-corrected doses of peptide throughout the study. Data are shown as mean±SEM in FIG. 7.

half-life [1] [h]	Compound	body weight gain, high dose [2]	body weight gain, low dose ([2]; 0.5 nmol/kg b.i.d. s.c.)
5.8	CCCCCCCCCCCCCCCC(=O)N[C@@H](CCC(=O)NCCCC[C@H](NC(=O)[C@H](CC(=O)O)NC(=O)[C@H](CC(C)C)NC(=O)[C@H](Cc1ccc(O)cc1)NC(=O)[C@H](CCCCN)NC(=O)[C@H](CO)NC(=O)[C@H](Cc1ccc(O)cc1)NC(=O)[C@H](CC(=O)O)NC(=O)[C@H](CO)NC(=O)[C@@H](NC(=O)[C@H](Cc1ccccc1)NC(=O)[C@@H](NC(=O)CNC(=O)[C@H](CCC(N)=O)NC(=O)[C@H](CO)NC(=O)[C@@H](N)Cc1c[nH]cn1)[C@@H](C)O)[C@@H](C)O)C(=O)N[C@@H](CCCCN)C(=O)N[C@@H](C)C(=O)N[C@@H](C)C(=O)N[C@@H](Cc1c[nH]cn1)C(=O)N[C@@H](CC(=O)O)C(=O)N[C@@H](Cc1ccccc1)C(=O)N[C@H](C(=O)N[C@@H](CCC(=O)O)C(=O)N[C@@H](Cc1c[nH]c2ccccc12)C(=O)N[C@@H](CC(C)C)C(=O)N[C@@H](CC(C)C)C(=O)N[C@@H](CCCNC(=N)N)C(=O)N[C@@H](C)C(N)=O)C(C)C)C(=O)O [Compound 2] (H-HSQGTFTSDYSKYLDK([γGlu-Palmitoyl])KAAHDFVEWLLRA-NH2)		
	CCCCCCCCCCCCCCCC(=O)N[C@@H](CCC(=O)NCCCC[C@H](NC(=O)[C@H](CO)NC(=O)[C@H](CC(=O)O)NC(=O)[C@H](CC(C)C)NC(=O)[C@H](Cc1ccc(O)cc1)NC(=O)[C@H](CCCCN)NC(=O)[C@H](CO)NC(=O)[C@H](Cc1ccc(O)cc1)NC(=O)[C@H](CC(=O)O)NC(=O)[C@H](CO)NC(=O)[C@@H](NC(=O)[C@H](Cc1ccccc1)NC(=O)[C@@H](NC(=O)CNC(=O)[C@H](CCC(N)=O)NC(=O)[C@H](CO)NC(=O)[C@@H](N)Cc1c[nH]cn1)[C@@H](C)O)[C@@H](C)O)C(=O)N[C@@H](C)C(=O)N[C@@H](C)C(=O)N[C@@H](Cc1c[nH]cn1)C(=O)N[C@@H](CC(=O)O)C(=O)N[C@@H](Cc1ccccc1)C(=O)N[C@H](C(=O)N[C@@H](CCC(=O)O)C(=O)N[C@@H](Cc1c[nH]c2ccccc12)C(=O)N[C@@H](CC(C)C)C(=O)N[C@@H](CC(C)C)C(=O)N[C@@H](CCCNC(=N)N)C(=O)N[C@@H](C)C(N)=O)C(C)C)C(=O)O [Compound 3] (H-HSQGTFTSDYSKYLDSK([γGlu-Palmitoyl])AAHDFVEWLLRA-NH2)	significantly decreased body weight gain at the high dose	
2	CCCCCCCCCCCCCCCC(=O)N[C@@H](CCC(=O)NCCCC[C@H](NC(=O)[C@H](C)NC(=O)[C@H](C)NC(=O)[C@H](CCCCN)NC(=O)[C@H](CO)NC(=O)[C@H](CC(=O)O)NC(=O)[C@H](CC(C)C)NC(=O)[C@H](Cc1ccc(O)cc1)NC(=O)[C@H](CCCCN)NC(=O)[C@H](CO)NC(=O)[C@H](Cc1ccc(O)cc1)NC(=O)[C@H](CC(=O)O)NC(=O)[C@H](CO)NC(=O)[C@@H](NC(=O)[C@H](Cc1ccccc1)NC(=O)[C@@H](NC(=O)CNC(=O)[C@H](CCC(N)=O)NC(=O)[C@H](CO)NC(=O)[C@@H](N)Cc1c[nH]cn1)[C@@H](C)O)[C@@H](C)O)C(=O)N[C@@H](CC(=O)O)C(=O)N[C@@H](Cc1ccccc1)C(=O)N[C@H](C(=O)N[C@@H](CCC(=O)O)C(=O)N[C@@H](Cc1c[nH]c2ccccc12)C(=O)N[C@@H](CC(C)C)C(=O)N[C@@H](CC(C)C)C(=O)N[C@@H](CCCNC(=N)N)C(=O)N[C@@H](C)C(N)=O)C(C)C)C(=O)O [Compound 4] (H-HSQGTFTSDYSKYLDSKAAK([γGlu-Palmitoyl])DFVEWLLRA-NH2)		
5.3	CCCCCCCCCCCCCCCC(=O)N[C@@H](CCC(=O)NCCCC[C@H](NC(=O)[C@H](CC(C)C)NC(=O)[C@H](Cc1c[nH]c2ccccc12)NC(=O)[C@H](CCC(=O)O)NC(=O)[C@@H](NC(=O)[C@H](Cc1ccccc1)NC(=O)[C@H](CC(=O)O)NC(=O)[C@H](Cc1c[nH]cn1)NC(=O)[C@H](C)NC(=O)[C@H](C)NC(=O)[C@H](CCCCN)NC(=O)[C@H](CO)NC(=O)[C@H](CC(=O)O)NC(=O)[C@H](CC(C)C)NC(=O)[C@H](Cc1ccc(O)cc1)NC(=O)[C@H](CCCCN)NC(=O)[C@H](CO)NC(=O)[C@H](Cc1ccc(O)cc1)NC(=O)[C@H](CC(=O)O)NC(=O)[C@H](CO)NC(=O)[C@@H](NC(=O)[C@H](Cc1ccccc1)NC(=O)[C@@H](NC(=O)CNC(=O)[C@H](CCC(N)=O)NC(=O)[C@H](CO)NC(=O)[C@@H](N)Cc1c[nH]cn1)[C@@H](C)O)[C@@H](C)O)C(C)C)C(=O)N[C@@H](CCCNC(=N)N)C(=O)N[C@@H](C)C(N)=O)C(=O)O [Compound 5] (H-HSQGTFTSDYSKYLDSKAAHDFVEWLK([γGlu-Palmitoyl])RA-NH2)		
4.8	CCCCCCCCCCCCCCCC(=O)N[C@@H](CCC(=O)NCCCC[C@H](NC(=O)[C@H](CC(C)C)NC(=O)[C@H](CC(C)C)NC(=O)[C@H](Cc1c[nH]c2ccccc12)NC(=O)[C@H](CCC(=O)O)NC(=O)[C@@H](NC(=O)[C@H](Cc1ccccc1)NC(=O)[C@H](CC(=O)O)NC(=O)[C@H](Cc1c[nH]cn1)NC(=O)[C@H](C)NC(=O)[C@H](C)NC(=O)[C@H](CCCCN)NC(=O)[C@H](CO)NC(=O)[C@H](CC(=O)O)NC(=O)[C@H](CC(C)C)NC(=O)[C@H](Cc1ccc(O)cc1)NC(=O)[C@H](CCCCN)NC(=O)[C@H](CO)NC(=O)[C@H](Cc1ccc(O)cc1)NC(=O)[C@H](CC(=O)O)NC(=O)[C@H](CO)NC(=O)[C@@H](NC(=O)[C@H](Cc1ccccc1)NC(=O)[C@@H](NC(=O)CNC(=O)[C@H](CCC(N)=O)NC(=O)[C@H](CO)NC(=O)[C@@H](N)Cc1c[nH]cn1)[C@@H](C)O)[C@@H](C)O)C(C)C)C(=O)N[C@@H](C)C(N)=O)C(=O)O [Compound 6] (H-HSQGTFTSDYSKYLDSKAAHDFVEWLLK([γGlu-Palmitoyl])A-NH2)	only at the low dose	significantly decreased body weight gain
2.4	CCCCCCCCCCCCCCCC(=O)N[C@@H](CCC(=O)NCCCC[C@H](NC(=O)[C@H](CO)NC(=O)[C@H](CC(=O)O)NC(=O)[C@H](CC(C)C)NC(=O)[C@H](Cc1ccc(O)cc1)NC(=O)[C@H](CCCCN)NC(=O)[C@H](CO)NC(=O)[C@H](Cc1ccc(O)cc1)NC(=O)[C@H](CC(=O)O)NC(=O)[C@H](CO)NC(=O)[C@@H](NC(=O)[C@H](Cc1ccccc1)NC(=O)[C@@H](NC(=O)CNC(=O)[C@H](CCC(N)=O)NC(=O)C(C)(C)NC(=O)[C@@H](N)Cc1c[nH]cn1)[C@@H](C)O)[C@@H](C)O)C(=O)N[C@@H](C)C(=O)N[C@@H](C)C(=O)N[C@@H](CCCNC(=N)N)C(=O)N[C@@H](CC(=O)O)C(=O)N[C@@H](Cc1ccccc1)C(=O)N[C@H](C(=O)N[C@@H](C)C(=O)N[C@@H](Cc1c[nH]c2ccccc12)C(=O)N[C@@H](CC(C)C)C(=O)N[C@@H](CC(C)C)C(=O)N[C@@H](CCCNC(=N)N)C(=O)N[C@@H](C)C(N)=O)C(C)C)C(=O)O [Compound 9] (H-H[Aib]QGTFTSDYSKYLDSK([γGlu-Palmitoyl])AARDFVAWLLRA-NH2)		
6	CCCCCCCCCCCCCCCC(=O)N[C@@H](CCC(=O)NCCCC[C@H](NC(=O)[C@H](CC(C)C)NC(=O)[C@H](CC(C)C)NC(=O)[C@H](Cc1c[nH]c2ccccc12)NC(=O)[C@H](CCC(=O)O)NC(=O)[C@@H](NC(=O)[C@H](Cc1ccccc1)NC(=O)[C@H](CC(=O)O)NC(=O)[C@H](Cc1c[nH]cn1)NC(=O)[C@H](C)NC(=O)[C@H](C)NC(=O)[C@H](CCCCN)NC(=O)[C@H](CO)NC(=O)[C@H](CC(=O)O)NC(=O)[C@H](CC(C)C)NC(=O)[C@H](Cc1ccc(O)cc1)NC(=O)[C@H](CCCCN)NC(=O)[C@H](CO)NC(=O)[C@H](Cc1ccc(O)cc1)NC(=O)[C@H](CC(=O)O)NC(=O)[C@H](CO)NC(=O)[C@@H](NC(=O)[C@H](Cc1ccccc1)NC(=O)[C@@H](NC(=O)CNC(=O)[C@H](CCC(N)=O)NC(=O)C(C)(C)NC(=O)[C@@H](N)Cc1c[nH]cn1)[C@@H](C)O)[C@@H](C)O)C(C)C)C(=O)N[C@@H](C)C(N)=O)C(=O)O [Compound 12] (H-H[Aib]QGTFTSDYSKYLDSKAAHDFVEWLLK([γGlu-Palmitoyl])A-NH2)	significantly decreased body weight gain at the high dose	
6.4	CCCCCCCCCCCCCCCC(=O)N[C@@H](CCC(=O)NCCCC[C@H](NC(=O)[C@H](CO)NC(=O)[C@H](CC(=O)O)NC(=O)[C@H](CC(C)C)NC(=O)[C@H](Cc1ccc(O)cc1)NC(=O)[C@H](CCCCN)NC(=O)[C@H](CO)NC(=O)[C@H](Cc1ccc(O)cc1)NC(=O)[C@H](CC(=O)O)NC(=O)[C@H](CO)NC(=O)[C@@H](NC(=O)[C@H](Cc1ccccc1)NC(=O)[C@@H](NC(=O)CNC(=O)[C@H](CCC(N)=O)NC(=O)C(C)(C)NC(=O)[C@@H](N)Cc1c[nH]cn1)[C@@H](C)O)[C@@H](C)O)C(=O)N[C@@H](C)C(=O)N[C@@H](C)C(=O)N[C@@H](Cc1c[nH]cn1)C(=O)N[C@@H](CC(=O)O)C(=O)N[C@@H](Cc1ccccc1)C(=O)N[C@H](C(=O)N[C@H]1CCC(=O)NCCCC[C@@H](C(=O)N[C@@H](C)C(N)=O)NC(=O)[C@H](CC(C)C)NC(=O)[C@H](CC(C)C)NC(=O)[C@H](Cc2c[nH]c3ccccc23)NC1=O)C(C)C)C(=O)O [Compound 13] (H-H[Aib]QGTFTSDYSKYLDSK([γGlu-Palmitoyl])AAHDFVEWLLKA-NH2; lactam 24-28)		
